Laboratory results reported in US9023789B2, “Amylin analogs and pharmaceutical compositions thereof” (Novo Nordisk A/S, priority 2012, dated 2015).
Numbered stars: 1 amine (or outer) side, 2 acyl side, 3 side chain; on linkers, the order of the positions; unused ones are H or OH. Bridge positions count the residues as written; N and C are the ends. Side chains are listed from the residue outwards. Peptide text beside a SMILES is read from it. * marks the point of attachment. C20 diacid = O=C(O)CCCCCCCCCCCCCCCCCCC(=O)*; γGlu = O=C(O)[C@H](CCC(=O)[*:2])N[*:1]; AEEA = NCCOCCOCC(=O)O

Assays:
[1] = ASSAY (III) ThT fibrillation assay for physical stability; assay type: physicochemical
Summary of the method: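 Physical stability scored by ThT fluorescence (444 nm excitation, 485 nm emission) tracked every 20 min during 37 °C incubation with 960 rpm shaking, ThT at 1 μM final. Values are replicate means with SD at chosen times; HPLC against pramlintide standard gives initial and post-assay soluble concentrations.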

[2] = target: T1, human calcitonin receptor (Homo sapiens, UniProt P30988); test: ASSAY (VII) binding to the human calcitonin receptor (SPA, 125I-Calcitonin); settings: read-out: hCTR bind IC50;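 further: cell membranes (35 ng/µL) combined with SPA beads in 40 µL of pH 7.4 Hepes buffer, 384-well format, signal counted on a TopCounter instrument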
T1 construct: expressed in transfected cells
T1 sequence (P30988 25-474): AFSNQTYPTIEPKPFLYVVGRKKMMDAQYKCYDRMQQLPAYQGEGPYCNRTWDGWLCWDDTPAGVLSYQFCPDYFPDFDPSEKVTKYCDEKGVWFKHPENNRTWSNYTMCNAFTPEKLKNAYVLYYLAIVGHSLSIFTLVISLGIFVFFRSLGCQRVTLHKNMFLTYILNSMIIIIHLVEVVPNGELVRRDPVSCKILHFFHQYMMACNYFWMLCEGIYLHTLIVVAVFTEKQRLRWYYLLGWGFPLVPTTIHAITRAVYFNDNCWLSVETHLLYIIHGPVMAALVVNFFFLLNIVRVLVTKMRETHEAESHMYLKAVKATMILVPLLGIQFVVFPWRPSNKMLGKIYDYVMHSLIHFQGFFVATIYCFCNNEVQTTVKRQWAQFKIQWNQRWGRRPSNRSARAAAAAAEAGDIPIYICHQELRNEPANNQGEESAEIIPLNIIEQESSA

[3] = target: T2, human calcitonin (a) receptor in BHK570 cells (Homo sapiens, UniProt P30988); test: ASSAY (II)a functional assay, human calcitonin receptor (CRE luciferase); assay type: cell-based; settings: read-out: hCTR funct. EC50
T2 construct: expressed in transfected cells
T2 sequence (P30988 25-474): T1 sequence (P30988 25-474)
Summary of the method: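 Receptor activation is measured as cAMP-driven CRE-luciferase expression in BHK cells expressing the calcitonin receptor, with RAMP-3 co-expressed to form the amylin 3(a) receptor. Cells are exposed to compound for 3 hours at 37° C, and luciferase is then quantified by luminescence.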

SMILES	ThT pH 4.0 lag time (h) [1] [h]	IC50 [2] [µM]	EC50 [3] [µM]
CC[C@H](C)[C@H](NC(=O)[C@H](C)NC(=O)CNC(=O)[C@H](Cc1ccccc1)NC(=O)[C@H](CC(N)=O)NC(=O)[C@@H]1CCCN1C(=O)[C@H](CO)NC(=O)[C@H](CO)NC(=O)[C@H](Cc1c[nH]cn1)NC(=O)[C@H](CCCNC(=N)N)NC(=O)[C@H](CC(C)C)NC(=O)[C@H](Cc1ccccc1)NC(=O)[C@H](CCCNC(=N)N)NC(=O)[C@H](C)NC(=O)[C@H](CC(C)C)NC(=O)[C@H](CCCNC(=N)N)NC(=O)[C@H](CCC(N)=O)NC(=O)[C@@H](NC(=O)[C@H](C)NC(=O)[C@@H]1CSSC[C@H](NC(=O)[C@@H](N)CCCCNC(=O)COCCOCCNC(=O)CC[C@H](NC(=O)CCCCCCCCCCCCCCCCCCC(=O)O)C(=O)O)C(=O)N[C@@H](CC(N)=O)C(=O)N[C@@H]([C@@H](C)O)C(=O)N[C@@H](C)C(=O)N[C@@H]([C@@H](C)O)C(=O)N1)[C@@H](C)O)C(=O)N1CCC[C@H]1C(=O)N[C@@H](CO)C(=O)N[C@@H](CO)C(=O)N[C@H](C(=O)N[C@@H](CC(N)=O)C(=O)N[C@H](C(=O)NCC(=O)N[C@@H](CO)C(=O)N[C@@H](CC(N)=O)C(=O)N[C@H](C(=O)N[C@@H](Cc1ccc(O)cc1)C(N)=O)[C@@H](C)O)C(C)C)[C@@H](C)O [Example 82] (H-K([AEEA-γGlu-C20 diacid])CNTATCATQRLARFLRHSSPNFGAIPSSTNVGSNTY-NH2; disulfide 2-7; N-terminus assumed)	12	0.0888	0.0127
CC[C@H](C)[C@H](NC(=O)[C@H](C)NC(=O)CNC(=O)[C@H](Cc1ccccc1)NC(=O)[C@H](CC(N)=O)NC(=O)[C@@H]1CCCN1C(=O)[C@H](CO)NC(=O)[C@H](CO)NC(=O)[C@H](Cc1c[nH]cn1)NC(=O)[C@H](CCCNC(=N)N)NC(=O)[C@H](CC(C)C)NC(=O)[C@H](Cc1ccccc1)NC(=O)[C@H](CC(N)=O)NC(=O)[C@H](C)NC(=O)[C@H](CC(C)C)NC(=O)[C@H](CCCNC(=N)N)NC(=O)[C@H](CCC(N)=O)NC(=O)[C@@H](NC(=O)[C@H](C)NC(=O)[C@@H]1CSSC[C@H](NC(=O)[C@@H](N)CCCCNC(=O)CC[C@H](NC(=O)CCCCCCCCCCCCCCCCCCC(=O)O)C(=O)O)C(=O)N[C@@H](CC(N)=O)C(=O)N[C@@H]([C@@H](C)O)C(=O)N[C@@H](C)C(=O)N[C@@H]([C@@H](C)O)C(=O)N1)[C@@H](C)O)C(=O)N1CCC[C@H]1C(=O)N[C@@H](CO)C(=O)N[C@@H](CO)C(=O)N[C@H](C(=O)N[C@@H](CC(N)=O)C(=O)N[C@H](C(=O)NCC(=O)N[C@@H](CCCNC(=N)N)C(=O)N[C@@H](CC(N)=O)C(=O)N[C@H](C(=O)N[C@@H](Cc1ccc(O)cc1)C(N)=O)[C@@H](C)O)C(C)C)[C@@H](C)O [Example 79] (H-K([γGlu-C20 diacid])CNTATCATQRLANFLRHSSPNFGAIPSSTNVGRNTY-NH2; disulfide 2-7 (inferred); N-terminus assumed)	21	0.0364	0.00394
CC[C@H](C)[C@H](NC(=O)[C@H](C)NC(=O)CNC(=O)[C@H](Cc1ccccc1)NC(=O)[C@H](CC(N)=O)NC(=O)[C@@H]1CCCN1C(=O)[C@H](CO)NC(=O)[C@H](CO)NC(=O)[C@H](Cc1c[nH]cn1)NC(=O)[C@H](CCCNC(=N)N)NC(=O)[C@H](CC(C)C)NC(=O)[C@H](Cc1ccccc1)NC(=O)[C@H](CC(N)=O)NC(=O)[C@H](C)NC(=O)[C@H](CC(C)C)NC(=O)[C@H](CCCNC(=N)N)NC(=O)[C@H](CCC(N)=O)NC(=O)[C@@H](NC(=O)[C@H](C)NC(=O)[C@@H]1CSSC[C@H](NC(=O)[C@@H](N)CCCCNC(=O)COCCOCCNC(=O)CC[C@H](NC(=O)CCCCCCCCCCCCCCCCCCC(=O)O)C(=O)O)C(=O)N[C@@H](CC(N)=O)C(=O)N[C@@H]([C@@H](C)O)C(=O)N[C@@H](C)C(=O)N[C@@H]([C@@H](C)O)C(=O)N1)[C@@H](C)O)C(=O)N1CCC[C@H]1C(=O)N[C@@H](CO)C(=O)N1CCC[C@H]1C(=O)N[C@H](C(=O)N1CCC[C@H]1C(=O)N[C@H](C(=O)NCC(=O)N[C@@H](CO)C(=O)N[C@@H](CC(N)=O)C(=O)N[C@H](C(=O)N[C@@H](Cc1ccc(O)cc1)C(N)=O)[C@@H](C)O)C(C)C)[C@@H](C)O [Example 54] (H-K([AEEA-γGlu-C20 diacid])CNTATCATQRLANFLRHSSPNFGAIPSPTPVGSNTY-NH2; disulfide 2-7; N-terminus assumed)	15	0.00438	0.000987

Continued by falling IC50 [2], values first:

ThT pH 4.0 lag time (h) [1] [h]	IC50 [2] [µM]	EC50 [3] [µM]	SMILES
25	0.0609	0.00907	CC[C@H](C)[C@H](NC(=O)[C@H](C)NC(=O)CNC(=O)[C@H](Cc1ccccc1)NC(=O)[C@H](CC(N)=O)NC(=O)[C@@H]1CCCN1C(=O)[C@H](CO)NC(=O)[C@H](CO)NC(=O)[C@H](Cc1c[nH]cn1)NC(=O)[C@H](CCCNC(=N)N)NC(=O)[C@H](CC(C)C)NC(=O)[C@H](Cc1ccccc1)NC(=O)[C@@H](NC(=O)[C@H](C)NC(=O)[C@H](CC(C)C)NC(=O)[C@H](CCCNC(=N)N)NC(=O)[C@H](CCC(N)=O)NC(=O)[C@@H](NC(=O)[C@H](C)NC(=O)[C@@H]1CSSC[C@H](NC(=O)[C@@H](N)CCCCNC(=O)COCCOCCNC(=O)CC[C@H](NC(=O)CCCCCCCCCCCCCCCCCCC(=O)O)C(=O)O)C(=O)N[C@@H](CC(N)=O)C(=O)N[C@@H]([C@@H](C)O)C(=O)N[C@@H](C)C(=O)N[C@@H]([C@@H](C)O)C(=O)N1)[C@@H](C)O)[C@@H](C)O)C(=O)N1CCC[C@H]1C(=O)N[C@@H](CO)C(=O)N[C@@H](CO)C(=O)N[C@H](C(=O)N1CCC[C@H]1C(=O)N[C@H](C(=O)NCC(=O)N[C@@H](CO)C(=O)N[C@@H](CC(N)=O)C(=O)N[C@H](C(=O)N[C@@H](Cc1ccc(O)cc1)C(N)=O)[C@@H](C)O)C(C)C)[C@@H](C)O [Example 75] (H-K([AEEA-γGlu-C20 diacid])CNTATCATQRLATFLRHSSPNFGAIPSSTPVGSNTY-NH2; disulfide 2-7 (inferred); N-terminus assumed)
13	0.0424	0.00476	CC[C@H](C)[C@H](NC(=O)[C@H](C)NC(=O)CNC(=O)[C@H](Cc1ccccc1)NC(=O)[C@H](CC(N)=O)NC(=O)[C@@H]1CCCN1C(=O)[C@H](CO)NC(=O)[C@H](CO)NC(=O)[C@H](Cc1c[nH]cn1)NC(=O)[C@H](CCCNC(=N)N)NC(=O)[C@H](CC(C)C)NC(=O)[C@H](Cc1ccccc1)NC(=O)[C@H](C)NC(=O)[C@H](C)NC(=O)[C@H](CC(C)C)NC(=O)[C@H](CCCNC(=N)N)NC(=O)[C@H](CCC(N)=O)NC(=O)[C@@H](NC(=O)[C@H](C)NC(=O)[C@@H]1CSSC[C@H](NC(=O)[C@@H](N)CCCCNC(=O)COCCOCCNC(=O)CC[C@H](NC(=O)CCCCCCCCCCCCCCCCCCC(=O)O)C(=O)O)C(=O)N[C@@H](CC(N)=O)C(=O)N[C@@H]([C@@H](C)O)C(=O)N[C@@H](C)C(=O)N[C@@H]([C@@H](C)O)C(=O)N1)[C@@H](C)O)C(=O)N1CCC[C@H]1C(=O)N[C@@H](CO)C(=O)N[C@@H](CO)C(=O)N[C@H](C(=O)N1CCC[C@H]1C(=O)N[C@H](C(=O)NCC(=O)N[C@@H](CO)C(=O)N[C@@H](CC(N)=O)C(=O)N[C@H](C(=O)N[C@@H](Cc1ccc(O)cc1)C(N)=O)[C@@H](C)O)C(C)C)[C@@H](C)O [Example 72] (H-K([AEEA-γGlu-C20 diacid])CNTATCATQRLAAFLRHSSPNFGAIPSSTPVGSNTY-NH2; disulfide 2-7 (inferred); N-terminus assumed)
0	0.0325	0.0027	CC(C)C[C@H](NC(=O)[C@H](CCCNC(=N)N)NC(=O)[C@H](CCC(N)=O)NC(=O)[C@@H](NC(=O)[C@H](C)NC(=O)[C@@H]1CSSC[C@H](NC(=O)[C@@H](N)CCCCNC(=O)CC[C@H](NC(=O)CC[C@H](NC(=O)CCCCCCCCCCCCCCCCCCC(=O)O)C(=O)O)C(=O)O)C(=O)N[C@@H](CC(N)=O)C(=O)N[C@@H]([C@@H](C)O)C(=O)N[C@@H](C)C(=O)N[C@@H]([C@@H](C)O)C(=O)N1)[C@@H](C)O)C(=O)N[C@@H](C)C(=O)N[C@@H](CC(=O)O)C(=O)N[C@@H](Cc1ccccc1)C(=O)N[C@@H](CC(C)C)C(=O)N[C@@H](CCCNC(=N)N)C(=O)N[C@@H](Cc1c[nH]cn1)C(=O)N[C@@H](CO)C(=O)N[C@@H](CO)C(=O)N1CCC[C@H]1C(=O)N[C@@H](CC(N)=O)C(=O)N[C@@H](Cc1ccccc1)C(=O)NCC(=O)N[C@@H](C)C(=O)N1CCC[C@H]1C(=O)N[C@@H](CC(C)C)C(=O)N[C@@H](CO)C(=O)N[C@@H](CO)C(=O)N[C@H](C(=O)N[C@@H](CC(N)=O)C(=O)N[C@H](C(=O)NCC(=O)N[C@@H](CO)C(=O)N[C@@H](CC(=O)O)C(=O)N[C@H](C(=O)N[C@@H](Cc1ccc(O)cc1)C(N)=O)[C@@H](C)O)C(C)C)[C@@H](C)O [Example 1] (H-K([γGlu-γGlu-C20 diacid])CNTATCATQRLADFLRHSSPNFGAPLSSTNVGSDTY-NH2; disulfide 2-7)
